Assays:
Assay type in all cases: in vivo
[1] = test system: barnyardgrass (Echinochloa crus-galli); test: Test A preemergence; conditions: Echinochloa crus-galli, pre-emergence, 240 h
Method in brief: (§1)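 Greenhouse, ~10 d after spray; visual injury vs untreated controls, 0 = no effect, 100 = complete control. Preemergence: directed soil spray over planted seeds. Postemergence: plants 2–10 cm, 1–2 leaf stage. Loam/sand blend. Compound in non-phytotoxic solvent with surfactant.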

[2] = test system: ryegrass, Italian (Italian ryegrass, Lolium multiflorum); test: Test A preemergence; conditions: Lolium multiflorum, pre-emergence, 240 h, preemergence, read-out: Ryegrass, Italian plant response rating
Method in brief: as §1

Kochia (Kochia scoparia) [3] = test: Test A preemergence; conditions: Bassia scoparia, pre-emergence, 240 h, preemergence, read-out: Kochia plant response rating
Method in brief: as §1

[4] = test system: pigweed (Amaranthus retroflexus); test: Test A preemergence; conditions: Amaranthus retroflexus, pre-emergence, 240 h, preemergence, read-out: Pigweed plant response rating
[5] = test system: ragweed (common ragweed, Ambrosia elatior); test: Test A preemergence; conditions: Ambrosia artemisiifolia, pre-emergence, 240 h, preemergence, read-out: Ragweed plant response rating
Method in brief: as §1

[6] = test system: wheat (Triticum aestivum); test: Test A postemergence; conditions: Triticum aestivum, post-emergence, 240 h, postemergence, read-out: Wheat plant response rating
Method in brief: as §1

[7] = test system: Galium (catchweed bedstraw, Galium aparine); test: Test A postemergence; conditions: Galium, post-emergence, 240 h, postemergence, read-out: Galium plant response rating
Method in brief: as §1

[8] = test system: barnyardgrass (Echinochloa crus-galli); test: Test A postemergence; conditions: Echinochloa crus-galli, post-emergence, 240 h, postemergence, read-out: Barnyardgrass plant response rating
Method in brief: as §1

[9] = test system: ryegrass, Italian (Italian ryegrass, Lolium multiflorum); test: Test A postemergence; conditions: Lolium multiflorum, post-emergence, 240 h, postemergence, read-out: Ryegrass, Italian plant response rating
Method in brief: as §1

Kochia (Kochia scoparia) [10] = test: Test A postemergence; conditions: Bassia scoparia, post-emergence, 240 h, postemergence, read-out: Kochia plant response rating
Method in brief: as §1

[11] = test system: pigweed (Amaranthus retroflexus); test: Test A postemergence; conditions: Amaranthus retroflexus, post-emergence, 240 h, postemergence, read-out: Pigweed plant response rating
Method in brief: as §1

[12] = test system: blackgrass (Alopecurus myosuroides); test: Test A postemergence; conditions: Alopecurus myosuroides, post-emergence, 240 h, postemergence, read-out: Blackgrass plant response rating
Method in brief: as §1

[13] = test system: ragweed (common ragweed, Ambrosia elatior); test: Test A postemergence; conditions: Ambrosia artemisiifolia, post-emergence, 240 h, postemergence, read-out: Ragweed plant response rating
Method in brief: as §1

corn (Zea mays) = test: Test A postemergence; conditions: Zea mays, post-emergence, 240 h, postemergence, read-out: Corn plant response rating
Method in brief: as §1

[14] = test system: giant foxtail (Setaria faberii); test: Test A postemergence; conditions: Setaria faberi, post-emergence, 240 h, postemergence, read-out: Foxtail, Giant plant response rating
Method in brief: as §1

[15] = 125 g ai/ha, 0 to 100 scale where 0 is no effect and 100 is complete control, approx. 10 d
[16] = 500 g ai/ha, visual injury rating about 10 d after treatment, 0 to 100 scale (0 no effect, 100 complete control)
[17] = 125 g ai/ha, visual injury on 0 to 100 scale (0 no effect, 100 complete control), approx. 10 d
[18] = 500 g ai/ha, 0 to 100 scale, 0 is no effect, 100 is complete control

Structure (SMILES): Cc1ccc([C@H]2CN(C)C(=O)[C@]2(O)C(=O)Nc2cccc(F)c2F)cc1 (racemic) [Compound 1059]
- pest or weed control at 125 g/ha ([1]; 125 g ai/ha, Preemergence, visual injury rating after approximately 10 d, read-out: Barnyardgrass plant response rating (0 to 100 scale, 0 is no effect, 100 is complete control)): 70%
- pest or weed control at 500 g/ha ([1]; 500 g ai/ha, preemergence, visual injury rating about 10 d after treatment, 0 to 100 scale (0 no effect, 100 complete control), read-out: Barnyardgrass plant response rating): 90%
- pest or weed control at 125 g/ha [2, 15]: 0%
- pest or weed control at 500 g/ha [2, 16]: 0%
- pest or weed control at 125 g/ha (Kochia (Kochia scoparia) [3]; [15]): 0%
- pest or weed control at 500 g/ha (Kochia (Kochia scoparia) [3]; [16]): 20%
- pest or weed control at 125 g/ha [4, 15]: 0%
- pest or weed control at 500 g/ha [4, 16]: 0%
- pest or weed control at 125 g/ha [5, 15]: 0%
- pest or weed control at 500 g/ha [5, 16]: 30%
- plant injury at 125 g/ha [6, 17]: 0%
- plant injury at 500 g/ha [6, 18]: 0%
- pest or weed control at 125 g/ha [7, 17]: 0%
- pest or weed control at 500 g/ha [7, 18]: 0%
- pest or weed control at 125 g/ha [8, 17]: 40%
- pest or weed control at 500 g/ha [8, 18]: 90%
- pest or weed control at 125 g/ha [9, 17]: 0%
- pest or weed control at 500 g/ha [9, 18]: 20%
- pest or weed control at 125 g/ha (Kochia (Kochia scoparia) [10]; [17]): 0%
- pest or weed control at 500 g/ha (Kochia (Kochia scoparia) [10]; [18]): 0%
- pest or weed control at 125 g/ha [11, 17]: 0%
- pest or weed control at 500 g/ha [11, 18]: 0%
- pest or weed control at 125 g/ha [12, 17]: 0%
- pest or weed control at 500 g/ha [12, 18]: 0%
- pest or weed control at 125 g/ha [13, 17]: 0%
- pest or weed control at 500 g/ha [13, 18]: 0%
- plant injury at 125 g/ha (corn (Zea mays); [17]): 0%
- plant injury at 500 g/ha (corn (Zea mays); [18]): 20%
- pest or weed control at 125 g/ha [14, 17]: 0%
- pest or weed control at 500 g/ha [14, 18]: 40%

From patent publication US12077503B2, “Substituted cyclic amides and their use as herbicides” (FMC CORPORATION, priority 2015, dated 2024)
